In patent publication US20180318311A1, “TRICYCLIC 2-QUINOLINONES AS ANTIBACTERIALS” (priority 2017, published 2018):
Values after ≈ are worked out from the molar mass of the structure shown.

How the values were obtained:
Type in all cases: cell-based
[1] = system: E. coli ATCC 25922 (NB27001); assay: MIC by broth microdilution, E. coli NB27001; settings: Escherichia coli, ATCC25922, CAMHB, 35° C., 20 hours, read-out: Antibacterial activity (MIC) NB27001
Description: (§1) Bacterial isolates were cultivated from −80° C. frozen stocks by overnight passages at 35° C. in ambient air on Mueller-Hinton agar plates (MHA, Becton Dickinson, Franklin Lakes, NB) with the exception of S. pneumoniae which was grown overnight at 35° C. in the presence of 5% CO2 on blood agar plates (tryptic soy agar with 5% sheep blood (Thermo Scientific, Waltham, Mass.) . The following quality control and wild type strains were obtained from the American Type Culture Collection (ATCC; Rockville, Md.) and are coded in the Novartis strain collection as indicated: E. coli ATCC 25922 (NB27001), E. faecalis ATCC 29212 (NB04001), S. aureus ATCC 49951 (NB01006) and S. pneumoniae ATCC […] (NB07001). […] P. aeruginosa NB52019, obtained from Queen's University (Kingston, Ontario, Canada), is the wild-type PAO1 strain.
(§2) Minimal Inhibitory Concentrations (MIC) were determined by the broth microdilution method in accordance with Clinical and Laboratories Institute (CLSI) guidelines. In brief, fresh bacterial overnight cultures were re-suspended in sterile saline, adjusted to a 0.5 McFarland turbidity standard and then diluted to yield a final inoculum of approximately 5×10^5 colony-forming units (CFU)/mL. All bacterial suspensions were prepared in cation adjusted Mueller-Hinton Broth (CAMHB; Becton Dickinson, Franklin Lakes, N.J.;) with the exception of S. pneumoniae which was prepared in CAMHB supplemented with 5% lysed horse blood (Hardy Diagnostics, Santa Maria, Calif.). Two-fold serial dilutions of compounds were prepared in 100% dimethyl sulfoxide (DMSO) at 100-fold the highest final assay concentration; the resulting dilution series of compounds were diluted 1:10 with sterile water. Ten μL of the drug dilution series in 10% DMSO was transferred to microtiter wells and 90 μL of bacterial suspension was inoculated into the wells. All inoculated microdilution trays were incubated in ambient air at 35° C. for 20 hours. Following incubation, assay plates were read in a microtiter plate reader at 600 nm and visually inspected to confirm the MIC endpoint well with the OD value. The lowest concentration of the compound that prevented visible growth was recorded as the MIC (in μg/mL).

[2] = system: E. faecalis ATCC 29212 (NB04001); assay: MIC by broth microdilution, E. faecalis NB04001; settings: Enterococcus faecalis, ATCC29212, CAMHB, 35° C., 20 hours, read-out: Antibacterial activity (MIC) NB04001
Description: as §1, §2

[3] = system: S. aureus ATCC 49951 (NB01006); assay: MIC by broth microdilution, S. aureus NB01006; settings: Staphylococcus aureus, ATCC49951, CAMHB, 35° C., 20 hours, read-out: Antibacterial activity (MIC) NB01006
Description: as §1, §2

[4] = system: P. aeruginosa NB52019, wild-type PAO1 strain; assay: MIC by broth microdilution, P. aeruginosa NB52019; settings: Pseudomonas aeruginosa, CAMHB, 35° C., 20 hours, read-out: Antibacterial activity (MIC) NB52019
Description: as §1, §2

[5] = system: S. aureus NB01080 fluoroquinolone-resistant clinical isolate; assay: MIC by broth microdilution, S. aureus NB01080; settings: Staphylococcus aureus, CAMHB, 35° C., 20 hours, read-out: Antibacterial activity (MIC) NB01080
Description: as §1, §2

[6] = system: S. aureus NB01006-AVR005, gyrA (S84L), grlA (580F) and grlB (E471K); assay: microbe, parasite or virus in culture; settings: Staphylococcus aureus, 20 h, read-out: Antibacterial activity (MIC) NB01006-AVR005
Description: as §1, §2

[7] = system: S. pneumoniae ATCC 25922 (NB07001); assay: MIC by broth microdilution, S. pneumoniae NB07001; settings: Streptococcus pneumoniae, ATCC25922, 20 h, read-out: Antibacterial activity (MIC) NB07001
Description: as §1, §2

| Compound | MIC [1] [µg/mL] | MIC [2] [µg/mL] | MIC [3] [µg/mL] | MIC [4] [µg/mL] | MIC [5] [µg/mL] | MIC [6] [µg/mL] | MIC [7] [µg/mL] |
| --- | --- | --- | --- | --- | --- | --- | --- |
| C[C@H]1COc2c(N3CC4CCC(N)C4C3)c(F)cc3cc(C(=O)O)c(=O)n1c23 (single isomer, unassigned) [Example 1.28] | > 32 | 1 to 32 (≈ 2.58 to 82.6 µM) | 1 to 32 (≈ 2.58 to 82.6 µM) | > 32 | > 32 | > 32 | < 1 |
| C[C@H]1COc2c(N3CCC4CCNCC4C3)c(F)cc3cc(C(=O)O)c(=O)n1c23 (single isomer, unassigned) [Example 1.29] | > 32 | > 32 | > 32 | > 32 | > 32 | > 32 | > 32 |
| C[C@H]1COc2c(N3CCC4(CCC4N)CC3)c(F)cc3cc(C(=O)O)c(=O)n1c23 (single isomer, unassigned) [Example 1.32] | > 32 | 1 to 32 (≈ 2.49 to 79.7 µM) | 1 to 32 (≈ 2.49 to 79.7 µM) | > 32 | > 32 | > 32 | 1 to 32 (≈ 2.49 to 79.7 µM) |
| C[C@H]1COc2c(N3CCC4(CC3)CC4N)c(F)cc3cc(C(=O)O)c(=O)n1c23 (single isomer, unassigned) [Example 1.33] | 1 to 32 (≈ 2.58 to 82.6 µM) | 1 to 32 (≈ 2.58 to 82.6 µM) | 1 to 32 (≈ 2.58 to 82.6 µM) | > 32 | 1 to 32 (≈ 2.58 to 82.6 µM) | > 32 | 1 to 32 (≈ 2.58 to 82.6 µM) |
| C[C@H]1COc2c(N3CC4CNC4C3)c(F)cc3cc(C(=O)O)c(=O)n1c23 (single isomer, unassigned) [Example 1.39] | > 32 | > 32 | > 32 | > 32 | > 32 | > 32 | > 32 |
| C[C@H]1COc2c(N3CCC4(CC4N)C3)c(F)cc3cc(C(=O)O)c(=O)n1c23 (single isomer, unassigned) [Example 1.42] | < 1 | 1 to 32 (≈ 2.68 to 85.7 µM) | < 1 | 1 to 32 (≈ 2.68 to 85.7 µM) | 1 to 32 (≈ 2.68 to 85.7 µM) | 1 to 32 (≈ 2.68 to 85.7 µM) | < 1 |
| C[C@H]1COc2c(N3CCC(C(C)(C)N)C3)c(F)cc3cc(C(=O)O)c(=O)n1c23 (single isomer, unassigned) [Example 1.43] | 1 to 32 (≈ 2.57 to 82.2 µM) | < 1 | < 1 | > 32 | 1 to 32 (≈ 2.57 to 82.2 µM) | 1 to 32 (≈ 2.57 to 82.2 µM) | < 1 |
| CCC(N)C1CCN(c2c(F)cc3cc(C(=O)O)c(=O)n4c3c2OC[C@@H]4C)C1 (single isomer, unassigned) [Example 1.45] | 1 to 32 (≈ 2.57 to 82.2 µM) | < 1 | < 1 | > 32 | < 1 | 1 to 32 (≈ 2.57 to 82.2 µM) | < 1 |
| C[C@H]1COc2c(N3CCC(C4(N)CCC4)C3)c(F)cc3cc(C(=O)O)c(=O)n1c23 (single isomer, unassigned) [Example 1.46] | 1 to 32 (≈ 2.49 to 79.7 µM) | < 1 | < 1 | > 32 | < 1 | 1 to 32 (≈ 2.49 to 79.7 µM) | < 1 |
| CC(N)C1(F)CCN(c2c(F)cc3cc(C(=O)O)c(=O)n4c3c2OC[C@@H]4C)C1 (single isomer, unassigned) [Example 1.47] | 1 to 32 (≈ 2.54 to 81.3 µM) | 1 to 32 (≈ 2.54 to 81.3 µM) | < 1 | > 32 | 1 to 32 (≈ 2.54 to 81.3 µM) | 1 to 32 (≈ 2.54 to 81.3 µM) | < 1 |
| C[C@H]1COc2c(N3CC(CN)C4(CCOCC4)C3)c(F)cc3cc(C(=O)O)c(=O)n1c23 (single isomer, unassigned) [Example 1.48] | > 32 | < 1 | < 1 | > 32 | 1 to 32 (≈ 2.32 to 74.2 µM) | 1 to 32 (≈ 2.32 to 74.2 µM) | < 1 |
| C[C@H]1COc2c(N3CC(CN)C4(CCC4)C3)c(F)cc3cc(C(=O)O)c(=O)n1c23 (single isomer, unassigned) [Example 1.49] | 1 to 32 (≈ 2.49 to 79.7 µM) | < 1 | < 1 | 1 to 32 (≈ 2.49 to 79.7 µM) | 1 to 32 (≈ 2.49 to 79.7 µM) | 1 to 32 (≈ 2.49 to 79.7 µM) | < 1 |
